Settings: Liquid, light scattering

CCCCCC(=O)OCC [ethyl hexanoate]
Settings	speed of sound [m/s]
291.92 K, 7170 kPa	1273.2
292.04 K, 8640 kPa	1284
292.14 K, 10010 kPa	1290.3
293.41 K, 5690 kPa	1255
293.44 K, 4180 kPa	1247.7
294.64 K, 100 kPa	1224.2
294.64 K, 1100 kPa	1230.1
294.84 K, 2620 kPa	1239
301.5 K, 2670 kPa	1205.7
301.55 K, 1070 kPa	1195.5
301.56 K, 4130 kPa	1214.4
301.58 K, 7090 kPa	1236.9
301.6 K, 5650 kPa	1225.7
301.63 K, 8670 kPa	1245.9
301.73 K, 10030 kPa	1258.6
302.55 K, 100 kPa	1189.8
313.14 K, 9980 kPa	1220.5
313.24 K, 4030 kPa	1185
313.24 K, 8510 kPa	1215.6
313.25 K, 7000 kPa	1205.4
313.26 K, 5550 kPa	1196.2
313.28 K, 2510 kPa	1175.2
313.3 K, 100 kPa	1155.3
313.3 K, 1020 kPa	1160.8
323.18 K, 10000 kPa	1187.7
323.28 K, 8470 kPa	1179.1
323.31 K, 2480 kPa	1142.4
323.31 K, 4010 kPa	1149.9
323.33 K, 6950 kPa	1170
323.35 K, 5480 kPa	1162
323.36 K, 100 kPa	1120.8
323.36 K, 1020 kPa	1128.5
332.94 K, 8560 kPa	1145.7
332.97 K, 6950 kPa	1135.6
332.97 K, 10050 kPa	1156.4
332.99 K, 100 kPa	1086.3
332.99 K, 1060 kPa	1090.1
333.01 K, 2560 kPa	1105.9
333.04 K, 5580 kPa	1125.1
333.07 K, 4030 kPa	1115.9
342.65 K, 2510 kPa	1072.2
342.67 K, 100 kPa	1051.7
342.67 K, 1000 kPa	1054.8
342.69 K, 3940 kPa	1082.2
342.71 K, 5500 kPa	1094.5
342.72 K, 8500 kPa	1109.7
342.74 K, 7030 kPa	1099.1
342.82 K, 9990 kPa	1124.8
352.33 K, 100 kPa	1017.1
352.33 K, 1100 kPa	1023
352.33 K, 2540 kPa	1038.4
352.35 K, 4000 kPa	1050.4
352.41 K, 5530 kPa	1061
352.42 K, 7020 kPa	1068.2
352.43 K, 8490 kPa	1080.4
352.73 K, 10060 kPa	1093.6
362.56 K, 100 kPa	982.46
362.56 K, 1000 kPa	987.04
362.56 K, 4010 kPa	1015.1
362.58 K, 8530 kPa	1045.7
362.6 K, 7060 kPa	1033.4
362.62 K, 5540 kPa	1026
362.64 K, 2530 kPa	1000.9
362.68 K, 10100 kPa	1061.2
372.53 K, 2500 kPa	968.37
372.54 K, 100 kPa	947.78
372.54 K, 1040 kPa	952.55
372.55 K, 7020 kPa	1007.7
372.56 K, 8530 kPa	1016.3
372.57 K, 5560 kPa	998.43
372.59 K, 4050 kPa	985.39
372.86 K, 9900 kPa	1029.5
382.71 K, 8540 kPa	980
382.73 K, 7020 kPa	971.25
382.74 K, 100 kPa	913.07
382.74 K, 1000 kPa	922.72
382.74 K, 5540 kPa	962.72
382.75 K, 4010 kPa	952.21
382.76 K, 2560 kPa	934.6
382.91 K, 9900 kPa	997.44
392.4 K, 5520 kPa	933.47
392.41 K, 7010 kPa	940.67
392.42 K, 8480 kPa	949.6
392.47 K, 100 kPa	878.33
392.47 K, 1030 kPa	884.09
392.47 K, 4000 kPa	919.08
392.51 K, 2490 kPa	902.62
392.92 K, 9950 kPa	966.97
402 K, 6970 kPa	908.77
402.03 K, 100 kPa	843.55
402.03 K, 1040 kPa	854.91
402.06 K, 2470 kPa	868.02
402.06 K, 4030 kPa	883.34
402.08 K, 8510 kPa	919.03
402.1 K, 5510 kPa	899.47
402.68 K, 10070 kPa	936.79
412.72 K, 100 kPa	808.74
412.72 K, 1040 kPa	815.66
412.8 K, 2570 kPa	833.03
412.88 K, 5600 kPa	865.88
412.88 K, 7020 kPa	871.35
412.89 K, 8470 kPa	886.33
412.91 K, 4020 kPa	848.61
412.99 K, 10030 kPa	903.23
423.69 K, 9950 kPa	868.97
423.99 K, 8470 kPa	850.59
424.01 K, 6980 kPa	840.66
424.04 K, 5530 kPa	826.28
424.11 K, 2540 kPa	796.64
424.11 K, 4010 kPa	811.39
424.14 K, 100 kPa	773.9
424.14 K, 1010 kPa	774.99
432.74 K, 8510 kPa	826.01
432.77 K, 7030 kPa	813.37
432.78 K, 5380 kPa	798.35
432.84 K, 9890 kPa	842.12
432.92 K, 3990 kPa	780.75
433.17 K, 100 kPa	739.02
433.17 K, 1030 kPa	746.97
433.17 K, 2510 kPa	762.64
442.85 K, 5610 kPa	765.41
442.88 K, 4100 kPa	748.87
442.9 K, 930 kPa	715.97
442.9 K, 2480 kPa	729.4
442.91 K, 6990 kPa	777.33
442.92 K, 8480 kPa	791.24
452.58 K, 5540 kPa	735.89
452.61 K, 7110 kPa	747.91
452.63 K, 8380 kPa	764.36
452.65 K, 4080 kPa	717.86
452.91 K, 2540 kPa	695.59
452.92 K, 1040 kPa	677.79
452.93 K, 10000 kPa	781.61
462.7 K, 7080 kPa	715.1
462.71 K, 4130 kPa	682.75
462.71 K, 8400 kPa	730.25
462.72 K, 5530 kPa	700.28
462.73 K, 2510 kPa	660.98
462.91 K, 10060 kPa	751.22
462.97 K, 960 kPa	644.49
471.93 K, 7050 kPa	686.17
471.94 K, 5520 kPa	670.94
471.95 K, 8260 kPa	703.27
472.03 K, 3960 kPa	653.08
472.05 K, 10050 kPa	723.5
472.29 K, 2600 kPa	630.72
472.41 K, 950 kPa	612.74

Settings	speed of sound [m/s]
294.37 K	1220.1
301.55 K	1191
313.34 K	1152.7
324.26 K	1115.1
333.16 K	1077.6
343.2 K	1046.1
353.08 K	1010
363.12 K	975
373.14 K	942
383.76 K	905.4
393.3 K	870.1
402.64 K	834.9
413.59 K	800.8
423.96 K	764
433.99 K	730.3
443.55 K	697.6
452.9 K	661
463.1 K	628.8
473.82 K	592.4
